Patent US11231416B2, “Virus-like particle (VLP) based small molecule-protein interaction trap” (VIB VZW, priority 2015, dated 2022)
Values belong to the compound of their own block, whether it stands above or below them.

Tests used:
LNPEP = molecular target: T1, LNPEP (Homo sapiens, UniProt Q9UIQ6); assay: Viral trapping in VLPs, MS analysis; type: binding; details: all proteins (incl. low confidence identifications)
T1 construct: endogenous in cells; host or cells: HEK293T

LOC524129 = assay: Viral trapping in VLPs, MS analysis; type: binding; details: all proteins (incl. low confidence identifications)
EIF1AY = assay: Viral trapping in VLPs, MS analysis; type: binding, human; details: all proteins (incl. low confidence identifications)
FABP1 = molecular target: T2, FABP1 (Homo sapiens, UniProt P07148); assay: Viral trapping in VLPs, MS analysis; type: binding; details: all proteins (incl. low confidence identifications)
T2 construct: endogenous in cells; host or cells: HEK293T

CNPY2 = molecular target: T3, CNPY2 (Homo sapiens, UniProt Q9Y2B0); assay: Viral trapping in VLPs, MS analysis; type: binding; details: all proteins (incl. low confidence identifications)
T3 construct: endogenous in cells; host or cells: HEK293T

GINS1 = molecular target: T4, GINS1 (Homo sapiens, UniProt Q14691); assay: Viral trapping in VLPs, MS analysis; type: binding; details: all proteins (incl. low confidence identifications)
T4 construct: endogenous in cells; host or cells: HEK293T

SLC17A1 = molecular target: T5, SLC17A1 (Homo sapiens, UniProt Q14916); assay: Viral trapping in VLPs, MS analysis; type: binding; details: all proteins (incl. low confidence identifications)
T5 construct: endogenous in cells; host or cells: HEK293T

UBIAD1 = molecular target: T6, UBIAD1 (Homo sapiens, UniProt Q9Y5Z9); assay: Viral trapping in VLPs, MS analysis; type: binding
T6 construct: endogenous in cells; host or cells: HEK293T
T6 sequence (Q9Y5Z9 whole entry): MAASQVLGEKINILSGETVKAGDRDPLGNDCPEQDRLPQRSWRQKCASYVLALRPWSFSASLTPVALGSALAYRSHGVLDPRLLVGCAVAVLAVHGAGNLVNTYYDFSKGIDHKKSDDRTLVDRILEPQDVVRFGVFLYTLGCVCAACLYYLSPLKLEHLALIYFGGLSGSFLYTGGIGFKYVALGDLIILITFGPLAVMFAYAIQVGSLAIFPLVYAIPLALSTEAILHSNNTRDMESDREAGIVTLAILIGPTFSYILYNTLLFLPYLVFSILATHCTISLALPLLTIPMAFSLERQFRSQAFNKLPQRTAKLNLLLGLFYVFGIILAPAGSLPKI
Protocol: (§1) To screen for simvastatin binders, cells were transfected with the GAG-eDHFR construct and then treated immediately after transfection with the MTX-PEG6-simvastatin molecule. A total of five biological repeats were performed together with four DMSO control experiments. The list of candidate interactors was obtained after removal of all proteins (including proteins identified with a single peptide) that were found in 19 control samples, the four DMSO samples and the other small molecule samples (e.g., the protein list of the five simvastatin samples was challenged against a total of 29 samples). The control samples are a number of successful Virotrap experiments using unrelated proteins to generate a list of proteins that can be considered background proteins, and that can be subtracted from the protein list obtained for the actual samples.
(§2) For each small molecule condition, two lists of proteins (annotated by their gene name) were reported. The left part of the tables (“All proteins”) contains all unique protein identifications (thus also proteins identified with a single peptide) obtained after removal of the background proteins. The right part of the tables (“Proteins identified with >1 peptide”) contains only the proteins identified with high confidence (at least two modified peptide identifications for each protein). Some recurrent proteins that were identified in multiple experiments with a single peptide are removed from this list (e.g., PYGM identified with low confidence in two repeat experiments).

SQLE = molecular target: T7, SQLE (Homo sapiens, UniProt Q14534); assay: Viral trapping in VLPs, MS analysis; type: binding
T7 construct: endogenous in cells; host or cells: HEK293T
T7 sequence (Q14534 whole entry): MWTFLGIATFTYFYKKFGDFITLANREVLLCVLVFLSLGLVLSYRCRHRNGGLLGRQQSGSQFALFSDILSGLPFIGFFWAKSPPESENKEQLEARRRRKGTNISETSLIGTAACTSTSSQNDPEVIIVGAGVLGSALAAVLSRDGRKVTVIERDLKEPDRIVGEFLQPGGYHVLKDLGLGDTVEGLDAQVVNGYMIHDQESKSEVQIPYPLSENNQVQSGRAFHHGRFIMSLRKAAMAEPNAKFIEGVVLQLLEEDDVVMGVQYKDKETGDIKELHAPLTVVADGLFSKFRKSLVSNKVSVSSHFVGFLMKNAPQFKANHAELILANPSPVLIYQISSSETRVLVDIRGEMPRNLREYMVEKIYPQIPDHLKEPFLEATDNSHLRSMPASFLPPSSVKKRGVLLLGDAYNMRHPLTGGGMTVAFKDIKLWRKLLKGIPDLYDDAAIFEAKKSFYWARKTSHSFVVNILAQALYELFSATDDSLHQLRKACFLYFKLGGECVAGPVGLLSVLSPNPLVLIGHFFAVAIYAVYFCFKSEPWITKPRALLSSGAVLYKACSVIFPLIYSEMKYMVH
Protocol: as §1, §2

RBP4 = assay: Viral trapping in VLPs, MS analysis; type: binding, human; details: all proteins (incl. low confidence identifications)
PDIA4 = molecular target: T8, PDIA4 (Homo sapiens, UniProt P13667); assay: Viral trapping in VLPs, MS analysis; type: binding
T8 construct: endogenous in cells; host or cells: HEK293T
T8 sequence (P13667 21-645): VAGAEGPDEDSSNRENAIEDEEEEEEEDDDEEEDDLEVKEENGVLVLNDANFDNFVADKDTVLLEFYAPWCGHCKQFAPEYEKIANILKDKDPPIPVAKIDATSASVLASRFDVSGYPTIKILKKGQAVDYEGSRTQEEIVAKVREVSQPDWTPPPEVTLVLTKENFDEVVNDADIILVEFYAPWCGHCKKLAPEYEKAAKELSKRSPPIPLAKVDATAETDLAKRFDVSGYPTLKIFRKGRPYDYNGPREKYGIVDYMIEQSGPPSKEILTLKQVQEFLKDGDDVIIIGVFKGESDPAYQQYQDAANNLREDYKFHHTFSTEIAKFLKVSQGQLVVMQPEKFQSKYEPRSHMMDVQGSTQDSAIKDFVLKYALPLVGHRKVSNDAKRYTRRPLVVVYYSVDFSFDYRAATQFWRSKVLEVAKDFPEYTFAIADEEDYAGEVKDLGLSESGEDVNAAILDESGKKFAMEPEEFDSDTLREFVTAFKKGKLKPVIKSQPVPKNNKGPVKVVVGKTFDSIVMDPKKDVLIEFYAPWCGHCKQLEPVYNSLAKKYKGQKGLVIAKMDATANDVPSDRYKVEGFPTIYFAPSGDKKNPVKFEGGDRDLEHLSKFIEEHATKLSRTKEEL

KRT6B = molecular target: T9, KRT6B (Homo sapiens, UniProt P04259); assay: Viral trapping in VLPs, MS analysis; type: binding
T9 construct: endogenous in cells; host or cells: HEK293T
T9 sequence (P04259 whole entry): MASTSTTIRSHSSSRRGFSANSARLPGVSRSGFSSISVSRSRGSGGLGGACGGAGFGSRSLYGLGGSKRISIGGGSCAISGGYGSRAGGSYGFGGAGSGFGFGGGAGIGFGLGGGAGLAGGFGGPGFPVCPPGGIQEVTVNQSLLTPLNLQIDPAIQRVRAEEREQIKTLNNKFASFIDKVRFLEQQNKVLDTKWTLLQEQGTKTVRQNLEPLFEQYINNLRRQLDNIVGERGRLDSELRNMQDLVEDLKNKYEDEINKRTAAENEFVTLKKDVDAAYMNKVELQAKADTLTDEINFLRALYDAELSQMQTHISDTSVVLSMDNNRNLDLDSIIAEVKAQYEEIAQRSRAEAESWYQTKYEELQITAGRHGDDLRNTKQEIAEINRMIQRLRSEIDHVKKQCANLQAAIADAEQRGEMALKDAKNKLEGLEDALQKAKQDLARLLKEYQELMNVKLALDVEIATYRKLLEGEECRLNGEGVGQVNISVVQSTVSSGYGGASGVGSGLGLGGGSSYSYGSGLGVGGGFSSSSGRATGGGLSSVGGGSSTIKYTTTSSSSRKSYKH

VAMP4 = molecular target: T10, VAMP4 (Homo sapiens, UniProt O75379); assay: Viral trapping in VLPs, MS analysis; type: binding; details: all proteins (incl. low confidence identifications)
T10 construct: endogenous in cells; host or cells: HEK293T

RAB4A = molecular target: T11, RAB4A (Homo sapiens, UniProt P20338); assay: Viral trapping in VLPs, MS analysis; type: binding; details: all proteins (incl. low confidence identifications)
T11 construct: endogenous in cells; host or cells: HEK293T
T11 sequence (P20338 whole entry): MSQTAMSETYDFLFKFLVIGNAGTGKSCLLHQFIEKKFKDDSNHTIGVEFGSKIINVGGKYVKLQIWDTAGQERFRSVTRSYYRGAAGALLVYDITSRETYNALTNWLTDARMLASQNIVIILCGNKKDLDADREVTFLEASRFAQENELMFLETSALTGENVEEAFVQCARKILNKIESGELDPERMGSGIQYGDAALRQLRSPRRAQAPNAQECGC

GALNT1 = molecular target: T12, GALNT1 (Homo sapiens, UniProt Q10472); assay: Viral trapping in VLPs, MS analysis; type: binding; details: all proteins (incl. low confidence identifications)
T12 construct: endogenous in cells; host or cells: HEK293T

CTU1 = molecular target: T13, CTU1 (Homo sapiens, UniProt Q7Z7A3); assay: Viral trapping in VLPs, MS analysis; type: binding
T13 construct: endogenous in cells; host or cells: HEK293T
T13 sequence (Q7Z7A3 whole entry): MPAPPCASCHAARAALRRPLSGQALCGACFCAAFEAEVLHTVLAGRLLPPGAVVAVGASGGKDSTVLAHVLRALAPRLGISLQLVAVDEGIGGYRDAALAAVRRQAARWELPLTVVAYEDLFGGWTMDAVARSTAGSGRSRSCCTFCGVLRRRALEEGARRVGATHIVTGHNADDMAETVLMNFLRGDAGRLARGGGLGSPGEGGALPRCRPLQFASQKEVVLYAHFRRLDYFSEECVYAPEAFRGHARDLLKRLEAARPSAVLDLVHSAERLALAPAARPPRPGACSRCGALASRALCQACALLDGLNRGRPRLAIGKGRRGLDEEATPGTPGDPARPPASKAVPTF

AKT3 = molecular target: T14, AKT3 (Homo sapiens, UniProt Q9Y243); assay: Viral trapping in VLPs, MS analysis; type: binding; details: all proteins (incl. low confidence identifications)
T14 construct: endogenous in cells; host or cells: HEK293T

HMGCR = molecular target: T15, HMGCR (Homo sapiens, UniProt P04035); assay: Viral trapping in VLPs, MS analysis; type: binding
T15 construct: endogenous in cells; host or cells: HEK293T
T15 sequence (P04035 whole entry): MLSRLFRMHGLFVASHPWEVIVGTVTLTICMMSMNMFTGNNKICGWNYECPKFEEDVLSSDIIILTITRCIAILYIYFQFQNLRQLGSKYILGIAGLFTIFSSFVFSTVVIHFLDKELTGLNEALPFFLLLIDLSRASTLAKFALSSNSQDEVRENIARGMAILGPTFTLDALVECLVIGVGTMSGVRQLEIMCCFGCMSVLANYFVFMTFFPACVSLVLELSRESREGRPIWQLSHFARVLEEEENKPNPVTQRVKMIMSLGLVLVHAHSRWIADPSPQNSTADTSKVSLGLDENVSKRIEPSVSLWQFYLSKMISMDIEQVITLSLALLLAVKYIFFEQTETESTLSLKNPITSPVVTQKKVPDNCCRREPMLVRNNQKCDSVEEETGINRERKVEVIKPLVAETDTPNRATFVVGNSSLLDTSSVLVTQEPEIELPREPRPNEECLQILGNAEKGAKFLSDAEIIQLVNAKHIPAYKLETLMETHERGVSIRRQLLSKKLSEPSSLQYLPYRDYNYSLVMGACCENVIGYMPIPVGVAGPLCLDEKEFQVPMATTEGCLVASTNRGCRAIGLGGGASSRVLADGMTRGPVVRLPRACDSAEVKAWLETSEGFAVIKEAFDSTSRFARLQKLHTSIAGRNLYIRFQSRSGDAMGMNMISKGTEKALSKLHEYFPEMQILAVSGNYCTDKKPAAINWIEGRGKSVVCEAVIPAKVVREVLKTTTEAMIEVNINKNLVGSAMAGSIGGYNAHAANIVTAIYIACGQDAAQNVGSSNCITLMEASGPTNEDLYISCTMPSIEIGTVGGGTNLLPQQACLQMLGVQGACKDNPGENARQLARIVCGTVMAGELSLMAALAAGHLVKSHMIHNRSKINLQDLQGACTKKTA

ATP6V0C = molecular target: T16, ATP6V0C (Homo sapiens, UniProt P27449); assay: Viral trapping in VLPs, MS analysis; type: binding; details: all proteins (incl. low confidence identifications)
T16 construct: endogenous in cells; host or cells: HEK293T

PRKCSH = molecular target: T17, PRKCSH (Homo sapiens, UniProt P14314); assay: Viral trapping in VLPs, MS analysis; type: binding; details: all proteins (incl. low confidence identifications)
T17 construct: endogenous in cells; host or cells: HEK293T

SH3GL2 = molecular target: T18, SH3GL2 (Homo sapiens, UniProt Q99962); assay: Viral trapping in VLPs, MS analysis; type: binding; details: all proteins (incl. low confidence identifications)
T18 construct: endogenous in cells; host or cells: HEK293T

PYGM = assay: Viral trapping in VLPs, MS analysis; type: binding, human; details: all proteins (incl. low confidence identifications)
DDTL = assay: Viral trapping in VLPs, MS analysis; type: binding, human; details: all proteins (incl. low confidence identifications)
TMED5 = molecular target: T19, TMED5 (Homo sapiens, UniProt Q9Y3A6); assay: Viral trapping in VLPs, MS analysis; type: binding; details: all proteins (incl. low confidence identifications)
T19 construct: endogenous in cells; host or cells: HEK293T
T19 sequence (Q9Y3A6 28-229): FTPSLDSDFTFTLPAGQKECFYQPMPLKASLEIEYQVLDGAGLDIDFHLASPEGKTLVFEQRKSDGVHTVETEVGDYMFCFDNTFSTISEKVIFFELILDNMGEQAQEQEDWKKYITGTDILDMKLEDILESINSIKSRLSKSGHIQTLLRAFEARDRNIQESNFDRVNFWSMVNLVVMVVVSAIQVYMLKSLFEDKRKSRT

LAMTOR5 = molecular target: T20, LAMTOR5 (Homo sapiens, UniProt O43504); assay: Viral trapping in VLPs, MS analysis; type: binding; details: all proteins (incl. low confidence identifications)
T20 construct: endogenous in cells; host or cells: HEK293T

SARM1 = molecular target: T21, SARM1 (Homo sapiens, UniProt Q6SZW1); assay: Viral trapping in VLPs, MS analysis; type: binding
T21 construct: endogenous in cells; host or cells: HEK293T

MOXD1 = molecular target: T22, MOXD1 (Homo sapiens, UniProt Q6UVY6); assay: Viral trapping in VLPs, MS analysis; type: binding; details: all proteins (incl. low confidence identifications)
T22 construct: endogenous in cells; host or cells: HEK293T

LOC512271 = assay: Viral trapping in VLPs, MS analysis; type: binding; details: all proteins (incl. low confidence identifications)
VPS37D = molecular target: T23, VPS37D (Homo sapiens, UniProt Q86XT2); assay: Viral trapping in VLPs, MS analysis; type: binding; details: all proteins (incl. low confidence identifications)
T23 construct: endogenous in cells; host or cells: HEK293T

TMED9 = molecular target: T24, TMED9 (Homo sapiens, UniProt Q9BVK6); assay: Viral trapping in VLPs, MS analysis; type: binding; details: all proteins (incl. low confidence identifications)
T24 construct: endogenous in cells; host or cells: HEK293T

FHL1 = molecular target: T25, FHL1 (Homo sapiens, UniProt Q13642); assay: Viral trapping in VLPs, MS analysis; type: binding; details: all proteins (incl. low confidence identifications)
T25 construct: endogenous in cells; host or cells: HEK293T

SBDS = molecular target: T26, SBDS (Homo sapiens, UniProt Q9Y3A5); assay: Viral trapping in VLPs, MS analysis; type: binding; details: all proteins (incl. low confidence identifications)
T26 construct: endogenous in cells; host or cells: HEK293T

DBI = molecular target: T27, DBI (Homo sapiens, UniProt P07108); assay: Viral trapping in VLPs, MS analysis; type: binding; details: all proteins (incl. low confidence identifications)
T27 construct: endogenous in cells; host or cells: HEK293T
T27 sequence (P07108 whole entry): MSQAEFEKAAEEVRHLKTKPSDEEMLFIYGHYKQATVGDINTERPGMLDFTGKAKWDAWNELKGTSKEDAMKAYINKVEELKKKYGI

SLC46A1 = molecular target: T28, SLC46A1 (Homo sapiens, UniProt Q96NT5); assay: Viral trapping in VLPs, MS analysis; type: binding; details: all proteins (incl. low confidence identifications)
T28 construct: endogenous in cells; host or cells: HEK293T

KIAA0319L = molecular target: T29, KIAA0319L (Homo sapiens, UniProt Q8IZA0); assay: Viral trapping in VLPs, MS analysis; type: binding
T29 construct: endogenous in cells; host or cells: HEK293T
T29 sequence (Q8IZA0 whole entry): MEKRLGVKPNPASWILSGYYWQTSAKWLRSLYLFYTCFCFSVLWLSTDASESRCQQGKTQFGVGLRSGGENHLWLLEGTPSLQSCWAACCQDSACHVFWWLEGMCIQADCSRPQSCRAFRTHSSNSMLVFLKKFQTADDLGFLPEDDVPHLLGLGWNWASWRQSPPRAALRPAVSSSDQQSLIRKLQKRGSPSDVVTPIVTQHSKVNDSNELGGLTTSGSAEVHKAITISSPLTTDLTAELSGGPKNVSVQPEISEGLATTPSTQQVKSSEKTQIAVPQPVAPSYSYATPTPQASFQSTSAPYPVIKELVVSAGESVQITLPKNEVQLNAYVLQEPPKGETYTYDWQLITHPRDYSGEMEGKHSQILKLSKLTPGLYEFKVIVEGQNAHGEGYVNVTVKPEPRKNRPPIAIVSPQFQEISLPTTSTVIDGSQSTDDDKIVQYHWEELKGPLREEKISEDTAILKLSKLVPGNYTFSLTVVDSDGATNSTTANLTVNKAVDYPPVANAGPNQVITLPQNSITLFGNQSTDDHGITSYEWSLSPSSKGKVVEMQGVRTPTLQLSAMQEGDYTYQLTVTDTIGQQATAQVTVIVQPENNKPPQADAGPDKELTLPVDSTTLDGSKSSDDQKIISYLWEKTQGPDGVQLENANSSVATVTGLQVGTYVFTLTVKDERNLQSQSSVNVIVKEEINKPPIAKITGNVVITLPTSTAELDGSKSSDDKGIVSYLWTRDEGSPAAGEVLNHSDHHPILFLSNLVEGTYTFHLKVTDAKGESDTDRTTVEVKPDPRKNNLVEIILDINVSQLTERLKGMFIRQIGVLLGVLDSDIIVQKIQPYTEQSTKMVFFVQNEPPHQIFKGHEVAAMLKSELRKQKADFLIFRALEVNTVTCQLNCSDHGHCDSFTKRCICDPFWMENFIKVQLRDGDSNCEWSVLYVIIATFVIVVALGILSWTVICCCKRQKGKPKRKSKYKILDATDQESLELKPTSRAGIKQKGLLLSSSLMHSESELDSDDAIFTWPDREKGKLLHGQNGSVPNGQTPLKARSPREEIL

HSD17B4 = molecular target: T30, HSD17B4 (Homo sapiens, UniProt P51659); assay: Binary MASPIT assay; type: cell-based; details: binary MASPIT assay
T30 construct: endogenous in cells; host or cells: HEK293T
T30 sequence (P51659 1-736): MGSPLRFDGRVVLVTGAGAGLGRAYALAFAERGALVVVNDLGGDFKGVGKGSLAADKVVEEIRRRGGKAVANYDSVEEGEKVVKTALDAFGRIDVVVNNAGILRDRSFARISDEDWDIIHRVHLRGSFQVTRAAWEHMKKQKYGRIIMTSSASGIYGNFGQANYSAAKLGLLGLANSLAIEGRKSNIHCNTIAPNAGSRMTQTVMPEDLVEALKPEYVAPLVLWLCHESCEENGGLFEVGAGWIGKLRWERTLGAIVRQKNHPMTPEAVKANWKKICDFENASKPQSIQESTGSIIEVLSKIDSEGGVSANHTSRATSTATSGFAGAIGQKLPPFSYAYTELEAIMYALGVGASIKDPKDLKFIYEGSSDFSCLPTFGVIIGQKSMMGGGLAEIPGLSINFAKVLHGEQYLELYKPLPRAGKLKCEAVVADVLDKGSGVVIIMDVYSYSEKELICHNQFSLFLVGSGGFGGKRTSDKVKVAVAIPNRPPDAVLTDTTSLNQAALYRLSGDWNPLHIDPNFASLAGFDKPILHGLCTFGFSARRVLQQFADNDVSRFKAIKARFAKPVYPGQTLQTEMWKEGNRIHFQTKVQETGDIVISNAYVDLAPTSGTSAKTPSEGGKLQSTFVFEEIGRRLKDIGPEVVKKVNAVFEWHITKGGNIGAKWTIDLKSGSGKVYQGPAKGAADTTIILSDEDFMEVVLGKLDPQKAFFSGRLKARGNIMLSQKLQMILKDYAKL
Protocol: The binding of HSD17B4 to tamoxifen was further confirmed using the MASPIT technology. The binary MASPIT assay was essentially performed as described before (Risseeuw et al., 2013). Briefly, HEK293T cells were seeded in black tissue-culture treated 96-well plates at 10.000 cells/well in 100 μl culture medium (DMEM supplemented with 10% fetal calf serum), and grown at 37° C., 8% CO2. Twenty-four hours later cells were transfected with a combination of the pCLG-eDHFR plasmid (Risseeuw et al., 2013), the pMG1-HSD17B4 construct and the pXP2d2-rPAP1-luciferase reporter (Caligiuri et al., 2006). The pMG1-HSD17B4 construct was generated by Gateway transfer of the full size HSD17B4 ORF, obtained as an entry clone in the hORFeome collection, into the Gateway compatible pMG1 prey destination vector as described earlier (Lievens et al., 2009). Twenty-four hours after transfection, cells were either left unstimulated or treated with 100 ng/ml leptin, with or without addition of MTX-PEG6-tamoxifen. Another 24 hours later, luciferase activity was assayed using the Luciferase Assay System kit (Promega).

[1] = all proteins (incl. low confidence identifications)
[2] = proteins identified with >1 peptide (high confidence)

- Recurrence (x/5) (LNPEP): 1 x/5
- Recurrence (x/5) (FABP1): 1 x/5
- Recurrence (x/5) (CNPY2): 1 x/5
- Recurrence (x/5) (GINS1): 1 x/5
- Recurrence (x/5) (SLC17A1): 1 x/5
- Recurrence (x/5) (UBIAD1; [1]): 1 x/5
- Recurrence (x/5) (UBIAD1; [2]): 1 x/5
- Recurrence (x/5) (SQLE; [1]): 4 x/5
- Recurrence (x/5) (SQLE; [2]): 3 x/5
- Recurrence (x/5) (PDIA4; [1]): 1 x/5
- Recurrence (x/5) (PDIA4; [2]): 1 x/5
- Recurrence (x/5) (KRT6B; [1]): 1 x/5
- Recurrence (x/5) (KRT6B; [2]): 1 x/5
- Recurrence (x/5) (VAMP4): 1 x/5
- Recurrence (x/5) (RAB4A): 1 x/5
- Recurrence (x/5) (GALNT1): 1 x/5
- Recurrence (x/5) (CTU1; [1]): 1 x/5
- Recurrence (x/5) (CTU1; [2]): 1 x/5
- Recurrence (x/5) (AKT3): 1 x/5
- Recurrence (x/5) (HMGCR; [1]): 5 x/5
- Recurrence (x/5) (HMGCR; [2]): 5 x/5
- Recurrence (x/5) (ATP6V0C): 1 x/5
- Recurrence (x/5) (PRKCSH): 1 x/5
- Recurrence (x/5) (SH3GL2): 1 x/5
- Recurrence (x/5) (TMED5): 1 x/5
- Recurrence (x/5) (LAMTOR5): 1 x/5
- Recurrence (x/5) (SARM1; [1]): 3 x/5
- Recurrence (x/5) (SARM1; [2]): 3 x/5
- Recurrence (x/5) (MOXD1): 1 x/5
- Recurrence (x/5) (VPS37D): 1 x/5
- Recurrence (x/5) (TMED9): 1 x/5
- Recurrence (x/5) (FHL1): 1 x/5
- Recurrence (x/5) (SBDS): 1 x/5
- Recurrence (x/5) (DBI): 1 x/5
- Recurrence (x/5) (SLC46A1): 1 x/5
- Recurrence (x/5) (KIAA0319L; [1]): 1 x/5
- Recurrence (x/5) (KIAA0319L; [2]): 1 x/5
SMILES: CC1C=C2C=CC(C)C(CCC3CC(O)CC(=O)O3)C2C(OC(=O)C(C)(C)Cc2cn(CCOCCOCCOCCOCCOCCNC(=O)CCC(NC(=O)c3ccc(N(C)Cc4cnc5nc(N)nc(N)c5n4)cc3)C(=O)O)nn2)C1 (centres unmarked) [MTX-PEG6-simvastatin]
- Recurrence (x/5) (LOC524129): 1 x/5
- Recurrence (x/5) (EIF1AY): 1 x/5
- Recurrence (x/5) (RBP4): 1 x/5
- Recurrence (x/5) (PYGM): 2 x/5
- Recurrence (x/5) (DDTL): 1 x/5
- Recurrence (x/5) (LOC512271): 1 x/5

- interaction between tamoxifen and HSD17B4 (HSD17B4): confirmed
SMILES: CC/C(=C(\c1ccccc1)c1ccc(OCCN(C)C)cc1)c1ccccc1 [tamoxifen, reference compound]
